Measured values reported in PubChem BioAssay AID2060487 (Molecular Pharmacology Branch, DTP, NCI, 2025).

Tested on: 997537-175-T-J1-PDC complex spheroid viability
Experiment: Anticancer human tumor 997537-175-T-J1-PDC patient-derived colon adenocarcinoma cell line growth inhibition [GQUAD]
Conditions: for IC50: curve of first compound; for viability, T/C: stronger effect = lower value
Summary of the method: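 Multi-cell-type spheroids of tumor cells with HUVEC and mesenchymal stem cells, treated with drug combinations. Concentrations descend in half-log steps from near clinical Cmax, or from 10 microM where Cmax is unknown; viability read-out.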

[1] = second compound 0.0316 µM, first compound 0.0316 µM
[2] = second compound 0.0316 µM, first compound 0.1 µM
[3] = second compound 0.0316 µM, first compound 0.316 µM
[4] = second compound 0.0316 µM, first compound 1 µM
[5] = second compound 0.0316 µM, first compound 3.16 µM
[6] = second compound 0.0316 µM, first compound 10 µM
[7] = second compound 0.1 µM, first compound 0.0316 µM
[8] = second compound 0.1 µM, first compound 0.1 µM
[9] = second compound 0.1 µM, first compound 0.316 µM
[10] = second compound 0.1 µM, first compound 1 µM
[11] = second compound 0.1 µM, first compound 3.16 µM
[12] = second compound 0.1 µM, first compound 10 µM
[13] = second compound 0.316 µM, first compound 0.0316 µM
[14] = second compound 0.316 µM, first compound 0.1 µM
[15] = second compound 0.316 µM, first compound 0.316 µM
[16] = second compound 0.316 µM, first compound 1 µM
[17] = second compound 0.316 µM, first compound 3.16 µM
[18] = second compound 0.316 µM, first compound 10 µM
[19] = second compound 1 µM, first compound 0.0316 µM
[20] = second compound 1 µM, first compound 0.1 µM
[21] = second compound 1 µM, first compound 0.316 µM
[22] = second compound 1 µM, first compound 1 µM
[23] = second compound 1 µM, first compound 3.16 µM
[24] = second compound 1 µM, first compound 10 µM
[25] = second compound 3.16 µM, first compound 0.0316 µM
[26] = second compound 3.16 µM, first compound 0.1 µM
[27] = second compound 3.16 µM, first compound 0.316 µM
[28] = second compound 3.16 µM, first compound 1 µM
[29] = second compound 3.16 µM, first compound 3.16 µM
[30] = second compound 3.16 µM, first compound 10 µM
[31] = second compound 10 µM, first compound 0.0316 µM
[32] = second compound 10 µM, first compound 0.1 µM
[33] = second compound 10 µM, first compound 0.316 µM
[34] = second compound 10 µM, first compound 1 µM
[35] = second compound 10 µM, first compound 3.16 µM
[36] = second compound 10 µM, first compound 10 µM
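Note: spheroids exposed to the agents for 7 days.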
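Throughout, for viability, T/C: 100% = DMSO vehicle control viability.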

SMILES: COc1ccc([C@@H](O)c2cc(-c3ncnc4cc(N5CCOCC5)ccc34)c(F)cc2Cl)nn1 + Cc1[nH]c2ccc(F)cc2c1-c1nc2c3cccnc3c3ncccc3c2[nH]1
- IC50 (second compound 0.0316 µM): > 10000 nM
- IC50 (second compound 0.1 µM): > 10000 nM
- IC50 (second compound 0.316 µM): > 10000 nM
- IC50 (second compound 1 µM): 7630 nM
- IC50 (second compound 3.16 µM): > 10000 nM
- IC50 (second compound 10 µM): 8490 nM
- viability, T/C [1]: 90%
- viability, T/C [2]: 98.5%
- viability, T/C [3]: 93.9%
- viability, T/C [4]: 80.4%
- viability, T/C [5]: 80.5%
- viability, T/C [6]: 60%
- viability, T/C [7]: 110%
- viability, T/C [8]: 86.2%
- viability, T/C [9]: 92.3%
- viability, T/C [10]: 60.7%
- viability, T/C [11]: 106%
- viability, T/C [12]: 48.8%
- viability, T/C [13]: 86.8%
- viability, T/C [14]: 98.9%
- viability, T/C [15]: 100%
- viability, T/C [16]: 81%
- viability, T/C [17]: 98.9%
- viability, T/C [18]: 67.8%
- viability, T/C [19]: 74.3%
- viability, T/C [20]: 81.4%
- viability, T/C [21]: 95.4%
- viability, T/C [22]: 72%
- viability, T/C [23]: 86.6%
- viability, T/C [24]: 40.1%
- viability, T/C [25]: 72.4%
- viability, T/C [26]: 71.9%
- viability, T/C [27]: 51.2%
- viability, T/C [28]: 92.2%
- viability, T/C [29]: 95.9%
- viability, T/C [30]: 54.7%
- viability, T/C [31]: 66%
- viability, T/C [32]: 88.5%
- viability, T/C [33]: 73.1%
- viability, T/C [34]: 73.1%
- viability, T/C [35]: 80.4%
- viability, T/C [36]: 45.7%

SMILES: Cn1ncnc1[C@H]1c2n[nH]c(=O)c3cc(F)cc(c23)N[C@@H]1c1ccc(F)cc1 + Cc1[nH]c2ccc(F)cc2c1-c1nc2c3cccnc3c3ncccc3c2[nH]1
- IC50 (second compound 0.0316 µM): > 316 nM
- IC50 (second compound 0.1 µM): > 316 nM
- IC50 (second compound 0.316 µM): > 316 nM
- IC50 (second compound 1 µM): > 316 nM
- IC50 (second compound 3.16 µM): > 316 nM
- IC50 (second compound 10 µM): > 316 nM
- viability, T/C (second compound 0.0316 µM, first compound 0.000999 µM): 101%
- viability, T/C (second compound 0.0316 µM, first compound 0.00316 µM): 99.5%
- viability, T/C (second compound 0.0316 µM, first compound 0.00999 µM): 104%
- viability, T/C [1]: 71%
- viability, T/C (second compound 0.0316 µM, first compound 0.0999 µM): 82.5%
- viability, T/C [3]: 83.1%
- viability, T/C (second compound 0.1 µM, first compound 0.000999 µM): 103%
- viability, T/C (second compound 0.1 µM, first compound 0.00316 µM): 102%
- viability, T/C (second compound 0.1 µM, first compound 0.00999 µM): 84.4%
- viability, T/C [7]: 65.1%
- viability, T/C (second compound 0.1 µM, first compound 0.0999 µM): 106%
- viability, T/C [9]: 96.2%
- viability, T/C (second compound 0.316 µM, first compound 0.000999 µM): 102%
- viability, T/C (second compound 0.316 µM, first compound 0.00316 µM): 103%
- viability, T/C (second compound 0.316 µM, first compound 0.00999 µM): 87.1%
- viability, T/C [13]: 75.8%
- viability, T/C (second compound 0.316 µM, first compound 0.0999 µM): 99.7%
- viability, T/C [15]: 93.1%
- viability, T/C (second compound 1 µM, first compound 0.000999 µM): 83.7%
- viability, T/C (second compound 1 µM, first compound 0.00316 µM): 74.6%
- viability, T/C (second compound 1 µM, first compound 0.00999 µM): 91.2%
- viability, T/C [19]: 81.3%
- viability, T/C (second compound 1 µM, first compound 0.0999 µM): 96.5%
- viability, T/C [21]: 87.8%
- viability, T/C (second compound 3.16 µM, first compound 0.000999 µM): 84.7%
- viability, T/C (second compound 3.16 µM, first compound 0.00316 µM): 73.2%
- viability, T/C (second compound 3.16 µM, first compound 0.00999 µM): 73.3%
- viability, T/C [25]: 70.6%
- viability, T/C (second compound 3.16 µM, first compound 0.0999 µM): 101%
- viability, T/C [27]: 84.2%
- viability, T/C (second compound 10 µM, first compound 0.000999 µM): 78%
- viability, T/C (second compound 10 µM, first compound 0.00316 µM): 61.3%
- viability, T/C (second compound 10 µM, first compound 0.00999 µM): 89.8%
- viability, T/C [31]: 62.9%
- viability, T/C (second compound 10 µM, first compound 0.0999 µM): 92.5%
- viability, T/C [33]: 95.3%

SMILES: CC(C)(O)C1CCC(Nc2ccc3ncc(-c4cccc(C(F)(F)F)c4)n3n2)CC1 (stereo unspecified) + CN(C)c1ccc(Nc2c3ccc(NC(=O)CCN4CCCC4)cc3nc3cc(NC(=O)CCN4CCCC4)ccc23)cc1
- IC50 (second compound 0.0316 µM): 2030 nM
- IC50 (second compound 0.1 µM): 1820 nM
- IC50 (second compound 0.316 µM): 1850 nM
- IC50 (second compound 1 µM): 2230 nM
- IC50 (second compound 3.16 µM): 1450 nM
- IC50 (second compound 10 µM): 2020 nM
- viability, T/C [1]: 99.5%
- viability, T/C [2]: 108%
- viability, T/C [3]: 88%
- viability, T/C [4]: 65.8%
- viability, T/C [5]: 41.1%
- viability, T/C [6]: 26.1%
- viability, T/C [7]: 83.8%
- viability, T/C [8]: 89.8%
- viability, T/C [9]: 78.2%
- viability, T/C [10]: 58.9%
- viability, T/C [11]: 38.2%
- viability, T/C [12]: 45.8%
- viability, T/C [13]: 85.2%
- viability, T/C [14]: 78.5%
- viability, T/C [15]: 78.2%
- viability, T/C [16]: 75.3%
- viability, T/C [17]: 27.9%
- viability, T/C [18]: 20.4%
- viability, T/C [19]: 61.4%
- viability, T/C [20]: 91.5%
- viability, T/C [21]: 79.2%
- viability, T/C [22]: 81%
- viability, T/C [23]: 30.4%
- viability, T/C [24]: 44.9%
- viability, T/C [25]: 64.5%
- viability, T/C [26]: 85.5%
- viability, T/C [27]: 79.4%
- viability, T/C [28]: 54.5%
- viability, T/C [29]: 44%
- viability, T/C [30]: 36.7%
- viability, T/C [31]: 87.8%
- viability, T/C [32]: 96.4%
- viability, T/C [33]: 95.9%
- viability, T/C [34]: 70.5%
- viability, T/C [35]: 37.2%
- viability, T/C [36]: 22.6%
